Results published in patent US12152016B2, “Aryl hydrocarbon receptor modulators and uses thereof” (Beth Israel Deaconess Medical Center, Inc., priority 2018, dated 2024).
Entries after “also recorded” stand apart in the source; their conditions may differ.

Tests used:
cyp1a1 = cyp1a1 expression by q-PCR in mouse Hepa-1c1c7 cells; type: cell-based; conditions: mouse Hepa-1c1c7, 10 nM-10 μM, 8 hours
Method: RNA was extracted using TRIzol (Invitrogen) following manufacturer's instructions and 0.1 μg of RNA was converted to cDNA using a high capacity cDNA reverse transcription kit (Invitrogen). qPCR was performed on the Applied Biosystems 7900 using TaqMan® Universal PCR Master Mix (Life Technologies) with TaqMan® (Life Technologies) primers against cyp1a1 (Mm00487218_m1), AhR (Mm00478932_m1), IL-22 (Mm01226722_g1), Foxp3 (Mm00475162_m1), IL-10 (Mm01288386_m1), TNF-a (Mm00443258_m1), IFN-r (Mm01168134_m1). The fold increase from experimental groups to control was calculated using the delta-delta CT method with 18S (Mm00446186_m1) as an internal reference gene. In vitro and in vivo activation of the AhR singling pathway was confirmed by q-PCR characterization of cyp1a1. For in vitro induction, mouse Hepa-1c1c7 were cultured to confluence in 24 well plates in full DMEM followed by 24 hours incubation in tryptophan deficient media. Cells were treated with vehicle control (DMSO), ITE, compound 108, or compound 109 (10 nM-10 μM) for 8 hours in tryptophan deficient media. At the end of treatment, cells were lysed in TRIzol for RNA isolation. To monitor in vivo induction, (0.1-1000 μg) compound 109 was given per mouse via oral gavage in 100 μl of vehicle (1% HPMC, 1% polysorbate 80). After 12 hours, liver, colon, spleen and leukocytes from blood were collected and lysed in TRIzol (Invitrogen) for q-PCR analysis.

DSS induced colitis = DSS induced colitis in mice; type: in vivo, C57BL/6 mice
Method: C57BL/6 (8-10 week, male) mice were administered drinking water supplemented with 3% (wt/vol) dextran sodium sulfate (DSS; MP Biomedicals) for 7 days followed by a 13 day recovery period with unsupplemented drinking water. Compound 109 or compound 108 were suspended in vehicle (1% HPMC and 1% polysorbate 80 in water) and given daily by oral gavage (1 ug/mouse in 100 uL), starting at day 0. Control mice were administered 100 μL vehicle. Body weight and disease activity index (DAI) were recorded daily. DAI was determined by combining scores of weight loss, stool consistency, blood in stool, activity, and appearance.^1 Scores were determined as follows: change in weight (0: <1%, 1: 1-10%, 2: 10-18%, 3: 18-20%); stool consistency (0: normal, 1: loose stools, 2: diarrhea); stool blood (0: negative, 1: trace blood, 2: bloody stool, 3: gross bleeding), activity (0: normal, 1: low activity, 2: hiding, 3: no response to gentle stimuli) and appearance (0: normal, 1: rigor, 2: hunched posture). On day 7 and day 11, mice were euthanized and colon were removed for length measurement, histology, RNA isolation, and lamina propria mononuclear cell (LPMC) extraction as detailed below.
Dissected colon were cut longitudinally and rolled using the Swiss roll method with the distal side in the center.^2,3 Colons were fixed overnight in 10% neutral buffered formalin, processed for paraffin embedding and sectioned at 5 μm thickness. To visualize and quantify the inflammatory response and crypt loss, hematoxylin and eosin staining (H&E) was performed. Briefly, sections were cleared with xylene, rehydrated through alcohol gradient, stained by hematoxylin, washed by acid and ammonium alcohol, rinsed in water and exposed to Eosin followed by dehydrating through graded alcohols and cleared in xylene. All sections were mounted using Permount (Fisher Scientific) and visualized using a BX41 microscope (Olympus). For histological scoring, 3 transverse sections of Swiss roll were chosen and 9 (100×) images were captured for each section. Images were analyzed for inflammation and crypt structure and scored by a blind observer as follows: inflammation (0: rare inflammatory cells in the lamina propria; 1: increased numbers of inflammatory cells in the lamina propria; 2: confluence of inflammatory cells extending in to the submucosa; 3: transmural extension of the inflammatory infiltrate.); crypt loss (0: none; 1: basal 1/3 damaged; 2: basal 2/3 damaged; 3: only surface epithelium intact; 4: entire crypt and epithelium lost). Inflammation and crypt loss were scored separately and multiplied by a factor of 1-4 to adjust for impacted area of tissue section (1: 0-25%; 2: 25.1-50% affected; 3: 50.1-75% affected; 4: >75% affected).^1,4 To examine goblet cell number, sections were stained by a commercial periodic acid-Schiff (PAS) and Alcian blue kit (Fisher Scientific). For quantification, 3 transverse sections of Swiss roll were chosen per colon and 5 random images at 200x were taken per section in the distal region of the colon. Goblet cell number was counted per image and normalized to colon length by a blind observer using image J.^5
Colonic epithelium and lamina propria cells were isolated as previously described.^6,7 Briefly, colons were dissected and washed with HBSS to remove fecal contents. Colon were opened longitudinally and cut into 2 cm segments. […]

[1] = tested on: AHR-dependent transcription of the CYP1A1 gene; assay: CYP1A1 induction in mouse macrophages; type: cell-based
Method: Mouse macrophages were also used to test AHR-dependent transcription of the CYP1A1 gene in vivo. Finally, the activity of exemplary compounds of Formula (I) described herein was tested in the human […] cell line U937. The U937 cell line is derived from a patient with diffuse histiocytic lymphoma. Tables 2-4 summarize structure-activity relationship data collected for exemplary, non-limiting compounds of Formula (I) described herein.

[2] = target: T1, aryl hydrocarbon receptor (AHR) (Mus musculus, UniProt P30561); assay: XRE-driven luciferase reporter assay, mouse Hepa1c1c7; type: cell-based
T1 construct: Transfection was performed with 150 ng XRE-luciferase plasmid (Promega); endogenous in cells; host or cells: Hepa-1c1c7 (mouse hepatoma cell line)
T1 sequence (P30561 10-805 limits assumed): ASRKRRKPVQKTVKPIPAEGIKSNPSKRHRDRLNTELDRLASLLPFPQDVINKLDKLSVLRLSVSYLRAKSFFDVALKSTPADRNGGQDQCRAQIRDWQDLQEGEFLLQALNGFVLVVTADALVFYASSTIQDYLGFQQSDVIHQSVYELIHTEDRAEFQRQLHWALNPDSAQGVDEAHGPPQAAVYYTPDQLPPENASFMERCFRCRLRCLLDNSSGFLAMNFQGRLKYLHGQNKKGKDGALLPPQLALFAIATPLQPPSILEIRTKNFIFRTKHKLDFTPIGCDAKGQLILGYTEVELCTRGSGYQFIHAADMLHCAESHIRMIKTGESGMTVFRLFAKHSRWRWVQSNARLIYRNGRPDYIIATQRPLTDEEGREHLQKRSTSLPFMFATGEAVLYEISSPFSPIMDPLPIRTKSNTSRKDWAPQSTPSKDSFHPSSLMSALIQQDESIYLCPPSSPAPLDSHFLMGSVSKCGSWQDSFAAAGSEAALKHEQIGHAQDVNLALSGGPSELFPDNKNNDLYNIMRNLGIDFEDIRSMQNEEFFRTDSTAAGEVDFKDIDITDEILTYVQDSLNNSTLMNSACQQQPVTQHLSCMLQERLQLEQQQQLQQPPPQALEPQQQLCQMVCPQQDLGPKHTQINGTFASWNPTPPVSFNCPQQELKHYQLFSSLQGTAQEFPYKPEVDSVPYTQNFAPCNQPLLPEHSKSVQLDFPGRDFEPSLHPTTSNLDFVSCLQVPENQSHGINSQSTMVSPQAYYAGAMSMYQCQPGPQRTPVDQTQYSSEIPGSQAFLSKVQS
T1 sequence (P53762 whole entry partner): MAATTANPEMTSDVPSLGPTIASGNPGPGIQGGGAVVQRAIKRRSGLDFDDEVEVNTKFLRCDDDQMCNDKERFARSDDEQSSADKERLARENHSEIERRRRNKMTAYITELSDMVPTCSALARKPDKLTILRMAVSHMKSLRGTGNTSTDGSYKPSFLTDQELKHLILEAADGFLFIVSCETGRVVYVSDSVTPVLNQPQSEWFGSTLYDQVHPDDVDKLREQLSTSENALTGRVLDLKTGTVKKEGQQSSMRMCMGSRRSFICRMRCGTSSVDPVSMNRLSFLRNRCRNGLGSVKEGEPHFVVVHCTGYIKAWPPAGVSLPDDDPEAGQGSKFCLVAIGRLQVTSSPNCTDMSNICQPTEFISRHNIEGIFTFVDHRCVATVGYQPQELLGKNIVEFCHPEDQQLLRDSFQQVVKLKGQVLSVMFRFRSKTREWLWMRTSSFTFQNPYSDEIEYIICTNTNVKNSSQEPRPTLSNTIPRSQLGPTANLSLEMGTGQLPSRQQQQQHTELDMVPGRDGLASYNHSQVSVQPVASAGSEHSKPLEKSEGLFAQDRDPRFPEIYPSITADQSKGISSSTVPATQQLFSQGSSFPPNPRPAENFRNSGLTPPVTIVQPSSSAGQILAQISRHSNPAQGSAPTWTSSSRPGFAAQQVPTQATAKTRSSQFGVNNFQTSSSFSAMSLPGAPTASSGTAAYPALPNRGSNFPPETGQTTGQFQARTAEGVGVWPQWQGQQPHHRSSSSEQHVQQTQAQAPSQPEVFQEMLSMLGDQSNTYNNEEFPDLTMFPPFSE
Method: Human HepG2 or mouse Hepa-1c1c7 cells were seeded in 96 well opaque plates at 75,000 cells per well in full medium (DMEM+10% FBS) for 24 hours. Transfection was performed with 150 ng XRE-luciferase plasmid (Promega) with 4:1 Fugene to DNA ratio for 18 hours in Opti-MEM. Transfected cells were treated with AhR agonist (10^−5-10^−12) for 4.5 h in full medium. Cells were lysed and luciferase was activated using the Luciferase Assay System (Promega). Luminescence signals were measured with a FluroStar Omega microplate reader. Luminescence signals of compound treated groups were normalized to vehicle (DMSO) treated control and plotted as concentration dependent fold changes.

## N#Cc1cccc(C(=O)c2c[nH]c3ccccc23)n1 [Compound 108, 6-(1H-indole-3-carbonyl)pyridine-2-carbonitrile]
cyp1a1
  cyp1a1 expression (qPCR): induced AhR-dependent cyp1a1 expression; also recorded: dose dependent induction of cyp1a1 expression
DSS induced colitis; 3% DSS 7 days + 13 days recovery, 1 μg daily by oral gavage
  DSS induced colitis, overall effect: attenuates DSS induced colitis
DSS induced colitis; 3% DSS, 1 μg/day PO
  overall disease score: improved the overall disease score
  survival: significantly improved survival
  weight loss: reduced weight loss
[1]; 50 nM
  CYP1A1 induction (% of ITE ± SEM): 33 ± 3 % of ITE
[1]; 5 μM
  CYP1A1 induction (% of ITE ± SEM): 94 ± 24 % of ITE
[2]
  EC50: 94 nM
  XRE luciferase Emax (fold): 86 fold
